Laboratory results: PubChem BioAssay (NCI)
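Grown in 96-well plates, cells were treated for 48 hours with each compound at five concentrations. Insufficient inhibition: endpoint recorded as highest concentration tested. GI50 = concentration required for 50% inhibition of growth. TGI denotes the concentration required for complete inhibition of growth.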

How the values were obtained:
Assay in all cases: growth of human tumour cells (NCI), 48 h
SNB-19 CNS = tested on: SNB-19 CNS
MDA-MB-231 breast = tested on: MDA-MB-231 breast
CCRF-CEM leukemia = tested on: CCRF-CEM leukemia
UACC-62 melanoma = tested on: UACC-62 melanoma
HT29 colon = tested on: HT29 colon
SF-295 CNS = tested on: SF-295 CNS
SNB-75 CNS = tested on: SNB-75 CNS
M14 melanoma = tested on: M14 melanoma
EKVX NSCLC = tested on: EKVX NSCLC
DU-145 prostate = tested on: DU-145 prostate
ACHN renal = tested on: ACHN renal
UO-31 renal = tested on: UO-31 renal
A549 NSCLC = tested on: A549 NSCLC
SK-MEL-28 melanoma = tested on: SK-MEL-28 melanoma
HCT-15 colon = tested on: HCT-15 colon
NCI-H522 lung = tested on: NCI-H522 lung
T-47D breast = tested on: T-47D breast
KM12 colon = tested on: KM12 colon
OVCAR-8 ovarian = tested on: OVCAR-8 ovarian
SK-OV-3 ovarian = tested on: SK-OV-3 ovarian
CAKI-1 renal = tested on: CAKI-1 renal
COLO 205 colon = tested on: COLO 205 colon
A498 renal = tested on: A498 renal
NCI-H460 lung = tested on: NCI-H460 lung
NCI/ADR-RES ovarian = tested on: NCI/ADR-RES ovarian
NCI-H23 lung = tested on: NCI-H23 lung
IGROV1 ovarian = tested on: IGROV1 ovarian
UACC-257 melanoma = tested on: UACC-257 melanoma
RXF 393 renal = tested on: RXF 393 renal
SK-MEL-5 melanoma = tested on: SK-MEL-5 melanoma
PC-3 prostate = tested on: PC-3 prostate
HCT-116 colon = tested on: HCT-116 colon
SF-539 CNS = tested on: SF-539 CNS
HS 578T breast = tested on: HS 578T breast
MDA-MB-435 = tested on: MDA-MB-435
HCC-2998 colon = tested on: HCC-2998 colon
MALME-3M melanoma = tested on: MALME-3M melanoma
786-0 renal = tested on: 786-0 renal
K-562 leukemia = tested on: K-562 leukemia
OVCAR-5 ovarian = tested on: OVCAR-5 ovarian
SR leukemia = tested on: SR leukemia
HL-60(TB) leukemia = tested on: HL-60(TB) leukemia
SW-620 colon = tested on: SW-620 colon
U251 CNS = tested on: U251 CNS
BT-549 breast = tested on: BT-549 breast
MOLT-4 leukemia = tested on: MOLT-4 leukemia
HOP-62 NSCLC = tested on: HOP-62 NSCLC
HOP-92 NSCLC = tested on: HOP-92 NSCLC
SF-268 CNS = tested on: SF-268 CNS
RPMI-8226 leukemia = tested on: RPMI-8226 leukemia
NCI-H226 lung = tested on: NCI-H226 lung
OVCAR-4 ovarian = tested on: OVCAR-4 ovarian
SK-MEL-2 melanoma = tested on: SK-MEL-2 melanoma
SN12C renal = tested on: SN12C renal
TK-10 renal = tested on: TK-10 renal
MCF7 breast = tested on: MCF7 breast

Fc1ccc(-c2cc3nc(C(Cl)Cl)nc(-c4cccs4)n3n2)cc1
GI50 (SNB-19 CNS): 0.664 µM
TGI (SNB-19 CNS): 4.4 µM
GI50 (MDA-MB-231 breast): 0.505 µM
TGI (MDA-MB-231 breast): 3.1 µM
GI50 (CCRF-CEM leukemia): 19.6 µM
TGI (CCRF-CEM leukemia): > 100 µM
GI50 (UACC-62 melanoma): 2.71 µM
TGI (UACC-62 melanoma): 15 µM
GI50 (HT29 colon): 0.356 µM
TGI (HT29 colon): 2.05 µM
GI50 (SF-295 CNS): 0.949 µM
TGI (SF-295 CNS): 4.79 µM
GI50 (SNB-75 CNS): 0.284 µM
TGI (SNB-75 CNS): 2.81 µM
GI50 (M14 melanoma): 4.5 µM
TGI (M14 melanoma): > 100 µM
GI50 (EKVX NSCLC): 1.12 µM
TGI (EKVX NSCLC): 4.07 µM
GI50 (DU-145 prostate): 0.31 µM
TGI (DU-145 prostate): 0.888 µM
GI50 (ACHN renal): 0.301 µM
TGI (ACHN renal): 1.21 µM
GI50 (UO-31 renal): 1.26 µM
TGI (UO-31 renal): 5.5 µM
GI50 (A549 NSCLC): 0.745 µM
TGI (A549 NSCLC): 4.92 µM
GI50 (SK-MEL-28 melanoma): 1.86 µM
TGI (SK-MEL-28 melanoma): 3.59 µM
GI50 (HCT-15 colon): 1.1 µM
TGI (HCT-15 colon): 3.71 µM
GI50 (NCI-H522 lung): > 100 µM
TGI (NCI-H522 lung): > 100 µM
GI50 (T-47D breast): 1.6 µM
TGI (T-47D breast): 7.24 µM
GI50 (KM12 colon): 2.2 µM
TGI (KM12 colon): 17.5 µM
GI50 (OVCAR-8 ovarian): 1.21 µM
TGI (OVCAR-8 ovarian): > 100 µM
GI50 (SK-OV-3 ovarian): 2.21 µM
TGI (SK-OV-3 ovarian): 13.8 µM
GI50 (CAKI-1 renal): 1.22 µM
TGI (CAKI-1 renal): 5.04 µM
GI50 (COLO 205 colon): 0.805 µM
TGI (COLO 205 colon): 3.12 µM
GI50 (A498 renal): 1.02 µM
TGI (A498 renal): 2.36 µM
GI50 (NCI-H460 lung): 0.309 µM
TGI (NCI-H460 lung): 1.19 µM
GI50 (NCI/ADR-RES ovarian): 1.17 µM
TGI (NCI/ADR-RES ovarian): 5.66 µM
GI50 (NCI-H23 lung): 1.47 µM
TGI (NCI-H23 lung): 4 µM
GI50 (IGROV1 ovarian): 3.07 µM
TGI (IGROV1 ovarian): > 100 µM
GI50 (UACC-257 melanoma): 3.04 µM
TGI (UACC-257 melanoma): 9.15 µM
GI50 (RXF 393 renal): 0.403 µM
TGI (RXF 393 renal): 1.71 µM
GI50 (SK-MEL-5 melanoma): > 100 µM
TGI (SK-MEL-5 melanoma): > 100 µM
GI50 (PC-3 prostate): 1.19 µM
TGI (PC-3 prostate): 4.67 µM
GI50 (HCT-116 colon): 1.53 µM
TGI (HCT-116 colon): > 100 µM
GI50 (SF-539 CNS): 1.05 µM
TGI (SF-539 CNS): 2.89 µM
GI50 (HS 578T breast): 1.95 µM
TGI (HS 578T breast): 7.03 µM
GI50 (MDA-MB-435): 1.63 µM
TGI (MDA-MB-435): 3.45 µM
GI50 (HCC-2998 colon): 0.41 µM
TGI (HCC-2998 colon): 1.59 µM
GI50 (MALME-3M melanoma): 7.5 µM
TGI (MALME-3M melanoma): > 100 µM
GI50 (786-0 renal): 2.31 µM
TGI (786-0 renal): 7.33 µM
GI50 (K-562 leukemia): 2.53 µM
TGI (K-562 leukemia): > 100 µM
GI50 (OVCAR-5 ovarian): 1.75 µM
TGI (OVCAR-5 ovarian): 5.31 µM
GI50 (SR leukemia): 3.7 µM
TGI (SR leukemia): > 100 µM
GI50 (HL-60(TB) leukemia): 0.29 µM
TGI (HL-60(TB) leukemia): 2.23 µM
GI50 (SW-620 colon): 1.18 µM
TGI (SW-620 colon): 8.61 µM
GI50 (U251 CNS): 0.319 µM
TGI (U251 CNS): 1.98 µM
GI50 (BT-549 breast): > 100 µM
TGI (BT-549 breast): > 100 µM
GI50 (MOLT-4 leukemia): 3.56 µM
TGI (MOLT-4 leukemia): > 100 µM
GI50 (HOP-62 NSCLC): 0.454 µM
TGI (HOP-62 NSCLC): 3.46 µM
GI50 (HOP-92 NSCLC): 0.537 µM
TGI (HOP-92 NSCLC): 2.96 µM
GI50 (SF-268 CNS): 1.61 µM
TGI (SF-268 CNS): 7.99 µM
GI50 (RPMI-8226 leukemia): 0.847 µM
TGI (RPMI-8226 leukemia): 5.79 µM
GI50 (NCI-H226 lung): > 100 µM
TGI (NCI-H226 lung): > 100 µM
GI50 (OVCAR-4 ovarian): 2.39 µM
TGI (OVCAR-4 ovarian): 6.22 µM
GI50 (SK-MEL-2 melanoma): 3.1 µM
TGI (SK-MEL-2 melanoma): 9.66 µM
GI50 (SN12C renal): 36.1 µM
TGI (SN12C renal): > 100 µM
GI50 (TK-10 renal): 3.14 µM
TGI (TK-10 renal): 6.88 µM
GI50 (MCF7 breast): 0.369 µM
TGI (MCF7 breast): 4.31 µM
